For 16 compounds, EC50 results are on record in US10689367B2, “Triazole pyridyl compounds as agonists of the APJ receptor” (AMGEN INC., priority 2016, dated 2020).

Molecules are shown by their SMILES.

A word on the EC50: it is the concentration needed to bring the measured effect to its halfway point.

For the assay, the target named is human APJ receptor (Homo sapiens (Human), UniProt P35414). Nature of the assay: [35S]GTPγS binding assay on membranes from CHO cells stably expressing human APJ receptor. The format is biochemical. The following applies: membranes of CHO cells stably expressing human APJ receptor, read-out: Activity hAPJ SPA EC50 IP. In outline: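 [35S]GTPγS binding measured on membranes from CHO cells stably expressing FLAG-tagged human APJ, with GDP, MgCl2 and NaCl levels optimized beforehand. Incubation 90 min at RT, imager read-out; EC50 from non-linear regression, averaged over several independent experiments.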
Sequence of human APJ receptor (P35414 whole entry): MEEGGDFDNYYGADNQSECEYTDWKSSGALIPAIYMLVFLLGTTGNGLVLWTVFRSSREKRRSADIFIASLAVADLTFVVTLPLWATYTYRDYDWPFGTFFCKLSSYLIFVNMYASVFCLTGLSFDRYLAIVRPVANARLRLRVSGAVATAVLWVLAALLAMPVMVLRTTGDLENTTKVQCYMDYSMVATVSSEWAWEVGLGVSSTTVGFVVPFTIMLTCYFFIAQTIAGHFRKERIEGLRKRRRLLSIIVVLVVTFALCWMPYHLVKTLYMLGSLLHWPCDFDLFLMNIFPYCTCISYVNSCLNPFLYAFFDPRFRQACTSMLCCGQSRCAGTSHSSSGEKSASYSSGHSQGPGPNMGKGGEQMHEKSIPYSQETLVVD
A general note: GTPγS resists hydrolysis and so accumulates on activated G proteins.
In the case of `COc1cccc(-c2nnc(NS(=O)(=O)[C@@H](C)[C@H](OC)c3ncc(Cl)cn3)n2Cc2ccno2)n1` [Example 266.0, (1R,2S)-1-(5-chloropyrimidin-2-yl)-N-(4-(isoxazol-5-ylmethyl)-5-(6-methoxypyridin-2-yl)-4H-1,2,4-triazol-3-yl)-1-methoxypropane-2-sulfonamide], the EC50 was determined as 9.6 nM.

Take `COc1cccc(-c2nnc(NS(=O)(=O)[C@@H](C)[C@@H](OC(C)C)c3ncc(C)cn3)n2[C@@H](C)c2nc(C)no2)n1` (single isomer, unassigned) [Example 240.0, (1S,2S)-N-(5-(6-methoxy-2-pyridinyl)-4-((1S)-1-(3-methyl-1,2,4-oxadiazol-5-yl)ethyl)-4H-1,2,4-triazol-3-yl)-1-(5-methyl-2-pyrimidinyl)-1-(2-propanyloxy)-2-propanesulfonamide or (1S,2S)-N-(5-(6-methoxy-2-pyridinyl)-4-((1R)-1-(3-methyl-1,2,4-oxadiazol-5-yl)ethyl)-4H-1,2,4-triazol-3-yl)-1-(5-methyl-2-pyrimidinyl)-1-(2-propanyloxy)-2-propanesulfonamide]: the EC50 amounted to 2 nM.

For `COc1cccc(-c2nnc(NS(=O)(=O)[C@@H](C)[C@@H](OC(C)C)c3ncc(C)cn3)n2[C@@H](C)c2c(C)noc2C)n1` (racemic) [Example 315.0], the EC50 was found to be 57 nM.

In the case of `COC[C@@H](C)n1c(NS(=O)(=O)[C@@H](C)[C@H](OC)c2ncc(Cl)cn2)nnc1-c1ccccn1` [Example 124.0], the EC50 came to 24 nM.

For `COc1cccc(-c2nnc(NS(=O)(=O)[C@@H](C)[C@@H](OC(C)C)c3ncc(C)cn3)n2[C@@H](C)c2ncc(C)o2)n1` (single isomer, unassigned) [Example 241.0, (1S,2S)-N-(5-(6-methoxy-2-pyridinyl)-4-((1S)-1-(5-methyl-1,3-oxazol-2-yl)ethyl)-4H-1,2,4-triazol-3-yl)-1-(5-methyl-2-pyrimidinyl)-1-(2-propanyloxy)-2-propanesulfonamide or (1S,2S)-N-(5-(6-methoxy-2-pyridinyl)-4-((1R)-1-(5-methyl-1,3-oxazol-2-yl)ethyl)-4H-1,2,4-triazol-3-yl)-1-(5-methyl-2-pyrimidinyl)-1-(2-propanyloxy)-2-propanesulfonamide], the EC50 came out at 7.4 nM.

Take `COC[C@H](C)n1c(NS(=O)(=O)[C@@H](C)[C@@H](OC(C)C)c2ncc(Cl)cn2)nnc1-c1cccc(OC)n1` [Example 179.0, (1S,2S)-1-(5-chloro-2-pyrimidinyl)-N-(4-((2S)-1-methoxy-2-propanyl)-5-(6-methoxy-2-pyridinyl)-4H-1,2,4-triazol-3-yl)-1-(2-propanyloxy)-2-propanesulfonamide]: the EC50 came to 0.64 nM.

Regarding `CC[C@@H](C)n1c(NS(=O)(=O)[C@@H](C)[C@H](OC)c2ncc(Cl)cn2)nnc1-c1cccc(OC)n1` (single isomer, unassigned) [Example 54.0], the concentration for a half-maximal effect (EC50) turned out to be 0.5 nM.

Turning to `COc1cnc([C@@H](OC)[C@H](C)S(=O)(=O)Nc2nnc(-c3cccc(OC)n3)n2[C@H]2CC23CC3)cn1` (single isomer, unassigned) [Example 159.0, (1R,2S)-1-methoxy-1-(5-methoxypyrazin-2-yl)-N-(5-(6-methoxypyridin-2-yl)-4-((S)-spiro[2.2]pentan-1-yl)-4H-1,2,4-triazol-3-yl)propane-2-sulfonamide or (1R,2S)-1-methoxy-1-(5-methoxypyrazin-2-yl)-N-(5-(6-methoxypyridin-2-yl)-4-((R)-spiro[2.2]pentan-1-yl)-4H-1,2,4-triazol-3-yl)propane-2-sulfonamide], the EC50 came out at 550 nM.

In the case of `COc1cccc(-c2nnc(NS(=O)(=O)[C@@H](C)[C@H](OC)c3ncc(Cl)cn3)n2[C@H](C)[C@@H]2CCCCO2)n1` (single isomer, unassigned) [Example 317.0], the 50% effective concentration (EC50) came out at 0.71 nM.

For the compound `COc1cccc(-c2nnc(NS(=O)(=O)[C@@H](C)[C@H](OC)c3ncc(Cl)cn3)n2C[C@@H]2CCCOC2)n1` (racemic) [Example 312.0, (1R,2S)-1-(5-chloropyrimidin-2-yl)-1-methoxy-N-(5-(6-methoxypyridin-2-yl)-4-(((R)-tetrahydro-2H-pyran-3-yl)methyl)-4H-1,2,4-triazol-3-yl)propane-2-sulfonamide or (1R,2S)-1-(5-chloropyrimidin-2-yl)-1-methoxy-N-(5-(6-methoxypyridin-2-yl)-4-(((S)-tetrahydro-2H-pyran-3-yl)methyl)-4H-1,2,4-triazol-3-yl)propane-2-sulfonamide], the EC50 worked out at 13 nM.

With `CC[C@@H](c1c(C)noc1C)n1c(NS(=O)(=O)[C@@H](C)[C@H](C)c2ncc(Cl)cn2)nnc1-c1cccc(OC)n1` (single isomer, unassigned) [Example 225.0, (2S,3R)-3-(5-chloro-2-pyrimidinyl)-N-(4-((1R)-1-(3,5-dimethyl-1,2-oxazol-4-yl)propyl)-5-(6-methoxy-2-pyridinyl)-4H-1,2,4-triazol-3-yl)-2-butanesulfonamide or (2S,3R)-3-(5-chloro-2-pyrimidinyl)-N-(4-((1S)-1-(3,5-dimethyl-1,2-oxazol-4-yl)propyl)-5-(6-methoxy-2-pyridinyl)-4H-1,2,4-triazol-3-yl)-2-butanesulfonamide], the EC50 was found to be 5.1 nM.

Regarding `COc1cccc(-c2nnc(NS(=O)(=O)[C@@H](C)[C@H](C)c3ncc(Cl)cn3)n2[C@@H](C)c2c(C)noc2C)n1` (racemic) [Example 313.0, (2S,3R)-3-(5-chloropyrimidin-2-yl)-N-(4-((R)-1-(3,5-dimethylisoxazol-4-yl)ethyl)-5-(6-methoxypyridin-2-yl)-4H-1,2,4-triazol-3-yl)butane-2-sulfonamide or (2S,3R)-3-(5-chloropyrimidin-2-yl)-N-(4-((S)-1-(3,5-dimethylisoxazol-4-yl)ethyl)-5-(6-methoxypyridin-2-yl)-4H-1,2,4-triazol-3-yl)butane-2-sulfonamide], the 50% effective concentration (EC50) was 21 nM.

For `COc1cccc(-c2nnc(NS(=O)(=O)[C@@H](C)[C@H](OC)c3ncc(Cl)cn3)n2[C@@H](C)c2ccno2)n1` (single isomer, unassigned) [Example 212.0, (1R,2S)-1-(5-chloro-2-pyrimidinyl)-1-methoxy-N-(5-(6-methoxy-2-pyridinyl)-4-((1S)-1-(1,2-oxazol-5-yl)ethyl)-4H-1,2,4-triazol-3-yl)-2-propanesulfonamide or (1R,2S)-1-(5-chloro-2-pyrimidinyl)-1-methoxy-N-(5-(6-methoxy-2-pyridinyl)-4-((1R)-1-(1,2-oxazol-5-yl)ethyl)-4H-1,2,4-triazol-3-yl)-2-propanesulfonamide], the 50% effective concentration (EC50) is 0.85 nM.

`CO[C@H](c1ncc(Cl)cn1)[C@H](C)S(=O)(=O)Nc1nnc(-c2ccccn2)n1C(C1CC1)C1CC1` [Example 46.0]: the EC50 was determined as 0.33 nM.

As for `COCC(COC)n1c(NS(=O)(=O)[C@@H](C)[C@@H](OC(C)C)c2ncc(F)cn2)nnc1-c1cccc(OC)n1` [Example 171.0, (1S,2S)-N-(4-(1,3-dimethoxy-2-propanyl)-5-(6-methoxy-2-pyridinyl)-4H-1,2,4-triazol-3-yl)-1-(5-fluoro-2-pyrimidinyl)-1-(2-propanyloxy)-2-propanesulfonamide], the EC50 is 0.37 nM.

`COCC1(n2c(NS(=O)(=O)[C@@H](C)[C@H](OC)c3ncc(Cl)cn3)nnc2-c2cccc(OC)n2)CC1` [Example 4.0]: the EC50 stood at 0.16 nM.
